In patent US10688200B2, “Urea-based prostate specific membrane antigen (PSMA) inhibitors for imaging and therapy” (Five Eleven Pharma Inc., priority 2015, dated 2020):

Test: Biodistribution of radiotracers in normal mice
Assay type: in vivo, mouse
Details: normal male mice
Description: Normal CD-1 male mice were injected via the tail vein with 35 μCi of [^68Ga] radiotracers (0.2 nmole of ligand). […] All organs were removed and blood was also collected. Each organ was weighed, and the tissue radioactivity was measured with an automated gamma counter (Wizard, Perkin Elmer). The % ID/g was calculated by comparison with samples of a standard dilution of the initial dose. All measurements were corrected for decay.

O=C(O)CC[C@H](NC(=O)CCc1ccc2c(c1)C[N+]13CC[N+]45CC(=O)[O][68Ga-3]41([O]C(=O)C3)([O]c1ccc(CCC(=O)NCCCCCC(=O)NCCCC[C@H](NC(=O)N[C@@H](CCC(=O)O)C(=O)O)C(=O)O)cc1C5)[O]2)C(=O)O (stereo partly drawn) [[^68Ga]1f]
Biodistribution: Blood (2 min): 7.77 ± 1.51 % dose/g
Biodistribution: Bone (2 min): 2.33 ± 0.38 % dose/g
Biodistribution: Brain (2 min): 0.25 ± 0.02 % dose/g
Biodistribution: Heart (2 min): 3.23 ± 0.64 % dose/g
Biodistribution: Kidney (2 min): 45.0 ± 12.57 % dose/g
Biodistribution: Liver (2 min): 2.43 ± 0.60 % dose/g
Biodistribution: Lung (2 min): 5.07 ± 1.01 % dose/g
Biodistribution: Muscle (2 min): 1.81 ± 0.07 % dose/g
Biodistribution: Pancreas (2 min): 1.72 ± 0.41 % dose/g
Biodistribution: Skin (2 min): 2.44 ± 0.16 % dose/g
Biodistribution: Spleen (2 min): 3.80 ± 0.97 % dose/g
Biodistribution: Blood (60 min): 0.97 ± 0.24 % dose/g
Biodistribution: Bone (60 min): 1.08 ± 0.05 % dose/g
Biodistribution: Brain (60 min): 0.04 ± 0.01 % dose/g
Biodistribution: Heart (60 min): 0.52 ± 0.07 % dose/g
Biodistribution: Kidney (60 min): 120 ± 5.65 % dose/g
Biodistribution: Liver (60 min): 0.79 ± 0.13 % dose/g
Biodistribution: Lung (60 min): 1.37 ± 0.15 % dose/g
Biodistribution: Muscle (60 min): 0.60 ± 0.04 % dose/g
Biodistribution: Pancreas (60 min): 1.13 ± 0.17 % dose/g
Biodistribution: Skin (60 min): 0.98 ± 0.10 % dose/g
Biodistribution: Spleen (60 min): 2.98 ± 1.86 % dose/g

O=C(O)CC[C@H](NC(=O)N[C@@H](CCCCNC(=O)CCCCCNC(=O)CCc1ccc2c(c1)C[N+]13CC[N+]45CC(=O)[O][68Ga-3]14([O]C(=O)C3)([O]2)[O]c1ccc(CCC(=O)NCCNC(=O)CN2CCN(CC(=O)O)CCN(CC(=O)O)CCN(CC(=O)O)CC2)cc1C5)C(=O)O)C(=O)O (stereo partly drawn) [[^68Ga]1g]
Biodistribution: Blood (2 min): 7.62 ± 0.08 % dose/g
Biodistribution: Bone (2 min): 1.51 ± 0.17 % dose/g
Biodistribution: Brain (2 min): 0.29 ± 0.06 % dose/g
Biodistribution: Heart (2 min): 2.82 ± 0.21 % dose/g
Biodistribution: Kidney (2 min): 50.9 ± 5.81 % dose/g
Biodistribution: Liver (2 min): 2.00 ± 0.05 % dose/g
Biodistribution: Lung (2 min): 5.19 ± 0.19 % dose/g
Biodistribution: Muscle (2 min): 1.72 ± 0.18 % dose/g
Biodistribution: Pancreas (2 min): 1.73 ± 0.09 % dose/g
Biodistribution: Skin (2 min): 2.00 ± 0.21 % dose/g
Biodistribution: Spleen (2 min): 5.06 ± 0.78 % dose/g
Biodistribution: Blood (30 min): 0.68 ± 0.09 % dose/g
Biodistribution: Bone (30 min): 0.22 ± 0.11 % dose/g
Biodistribution: Brain (30 min): 0.06 ± 0.03 % dose/g
Biodistribution: Heart (30 min): 0.49 ± 0.15 % dose/g
Biodistribution: Kidney (30 min): 110 ± 13.4 % dose/g
Biodistribution: Liver (30 min): 0.47 ± 0.06 % dose/g
Biodistribution: Lung (30 min): 2.13 ± 0.39 % dose/g
Biodistribution: Muscle (30 min): 0.48 ± 0.04 % dose/g
Biodistribution: Pancreas (30 min): 0.73 ± 0.19 % dose/g
Biodistribution: Skin (30 min): 1.13 ± 0.25 % dose/g
Biodistribution: Spleen (30 min): 5.28 ± 2.18 % dose/g
Biodistribution: Blood (60 min): 0.41 ± 0.02 % dose/g
Biodistribution: Bone (60 min): 0.28 ± 0.03 % dose/g
Biodistribution: Brain (60 min): 0.03 ± 0.01 % dose/g
Biodistribution: Heart (60 min): 0.27 ± 0.03 % dose/g
Biodistribution: Kidney (60 min): 116 ± 23.2 % dose/g
Biodistribution: Liver (60 min): 0.43 ± 0.05 % dose/g
Biodistribution: Lung (60 min): 1.33 ± 0.06 % dose/g
Biodistribution: Muscle (60 min): 0.30 ± 0.08 % dose/g
Biodistribution: Pancreas (60 min): 0.48 ± 0.05 % dose/g
Biodistribution: Skin (60 min): 0.92 ± 0.11 % dose/g
Biodistribution: Spleen (60 min): 4.77 ± 2.37 % dose/g
Biodistribution: Blood (120 min): 0.25 ± 0.04 % dose/g
Biodistribution: Bone (120 min): 0.28 ± 0.03 % dose/g
Biodistribution: Brain (120 min): 0.02 ± 0.00 % dose/g
Biodistribution: Heart (120 min): 0.16 ± 0.01 % dose/g
Biodistribution: Kidney (120 min): 95.0 ± 11.2 % dose/g
Biodistribution: Liver (120 min): 0.30 ± 0.01 % dose/g
Biodistribution: Lung (120 min): 0.85 ± 0.16 % dose/g
Biodistribution: Muscle (120 min): 0.23 ± 0.04 % dose/g
Biodistribution: Pancreas (120 min): 0.39 ± 0.04 % dose/g
Biodistribution: Skin (120 min): 0.66 ± 0.10 % dose/g
Biodistribution: Spleen (120 min): 2.48 ± 0.91 % dose/g
